Source: patent US20260184712A1, “Heterocyclic Compounds as ENT Inhibitors and Compounds for Use in the Treatment of Cancers” (iTeos Belgium SA, priority 2022, published 2026)

target: T1, human ENT1 (Homo sapiens, UniProt Q99808); test: ENT1 binding assay (competition with Sahenta-DY647 on JAR cells); settings: Binding Assay IC50, competition with SAHENTA-DY647 binding; IC50 categorized
T1 construct: JAR cells expressing ENT1 were purchased from ATCC; host or cells: JAR cells
T1 sequence (Q99808 1-456): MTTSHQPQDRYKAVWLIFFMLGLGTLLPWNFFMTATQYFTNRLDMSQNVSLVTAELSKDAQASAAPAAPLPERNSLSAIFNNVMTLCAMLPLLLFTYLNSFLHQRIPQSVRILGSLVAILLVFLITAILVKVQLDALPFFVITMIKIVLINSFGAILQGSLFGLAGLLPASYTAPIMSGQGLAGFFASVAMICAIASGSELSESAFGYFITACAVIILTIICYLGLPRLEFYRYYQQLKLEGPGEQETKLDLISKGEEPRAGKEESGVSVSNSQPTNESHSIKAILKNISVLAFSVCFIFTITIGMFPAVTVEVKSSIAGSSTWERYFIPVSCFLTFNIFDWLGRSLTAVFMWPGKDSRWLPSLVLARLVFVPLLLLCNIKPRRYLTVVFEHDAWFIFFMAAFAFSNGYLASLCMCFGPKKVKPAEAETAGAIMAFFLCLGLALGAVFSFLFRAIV
Outline: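 Whole-cell competition on JAR cells (native ENT1): 50,000 cells pre-incubated 30 min at 4 °C with compound in HBSS/10 mM Hepes/0.1% BSA, then 100 nM Sahenta-DY647 added for 30 min at 4 °C. After washing, fluorescence (Ex 630/Em 670 nm) read; IC50 from sigmoidal fit, averaged as pIC50.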

SMILES | IC50
C[C@H]1O[C@@H](n2cnc3c(SCc4ccccc4)ncnc32)[C@H](O)[C@@H]1O [Compound 224] | > 500 nM
C[C@H]1O[C@@H](n2cnc3c(COc4ccc(C#N)cc4)ncnc32)[C@H](O)[C@@H]1O [Compound 280] | > 500 nM

same assay, conditions: competition with SAHENTA-DY647 binding; IC50 categorized; read-out: Binding Assay IC50

SMILES | IC50
Cc1noc(CSc2ncnc3c2ncn3[C@@H]2O[C@H](C)[C@@H](O)[C@H]2O)n1 [Compound 397] | > 500 nM
C[C@H]1O[C@@H](n2c(N[C@H]3C[C@](C)(O)C3)nc3c(OCc4ccc(C#N)cc4)ncnc32)[C@H](O)[C@@H]1O [Compound 120] | < 1 nM
C[C@H]1O[C@@H](n2cnc3c(SCc4cscn4)ncnc32)[C@H](O)[C@@H]1O [Compound 300] | > 500 nM
C[C@H]1O[C@@H](n2cnc3c(NCc4ccc(N5CCOCC5)cc4)ncnc32)[C@H](O)[C@@H]1O [Compound 385] | > 500 nM
C[C@H]1O[C@@H](n2cnc3c(OCCc4cc(F)c(C#N)c(F)c4)ncnc32)[C@H](O)[C@@H]1O [Compound 223] | > 500 nM
C[C@H]1O[C@@H](n2cc(C(F)(F)F)c3c(SCc4ccc([N+](=O)[O-])cc4)ncnc32)[C@H](O)[C@@H]1O [Compound 163] | 20 to 500 nM
CC(Oc1ncnc2c1ncn2[C@@H]1O[C@H](C)[C@@H](O)[C@H]1O)c1ccc(OC(F)F)cc1 (some centres unmarked) [Compound 263] | > 500 nM
C[C@H]1O[C@@H](n2c(N[C@H]3CC[C@](C)(O)CC3)nc3c(OCc4ccc(Cl)cc4)ncnc32)[C@H](O)[C@@H]1O [Compound 127] | 20 to 500 nM
C[C@H]1O[C@@H](n2cnc3c(C(=O)N4CCC(c5ccc([N+](=O)[O-])cc5)CC4)ncnc32)[C@H](O)[C@@H]1O [Compound 418] | > 500 nM
C[C@H]1O[C@@H](n2cnc3c(OCc4ccc(F)c(F)c4)ncnc32)[C@H](O)[C@@H]1O [Compound 201] | 20 to 500 nM
C[C@H]1O[C@@H](n2cnc3c(C4=Cc5cc([N+](=O)[O-])ccc5CC4)ncnc32)[C@H](O)[C@@H]1O [Compound 192] | 20 to 500 nM
CC(=O)c1ccc(COc2ncnc3c2ncn3[C@@H]2O[C@H](C)[C@@H](O)[C@H]2O)cc1 [Compound 245] | > 500 nM
C[C@H]1O[C@@H](n2c(N[C@H]3C[C@](C)(O)C3)nc3c(OCc4ccc(OC(F)F)cc4)ncnc32)[C@H](O)[C@@H]1O [Compound 124] | < 1 nM
C[C@H]1O[C@@H](n2c(Nc3cnn(C)c3)nc3c(OCc4ccc(C#N)cc4)ncnc32)[C@H](O)[C@@H]1O [Compound 63] | 20 to 500 nM
CCNc1nc2c(OCc3ccc(C#N)cc3)ncnc2n1[C@@H]1O[C@H](C)[C@@H](O)[C@H]1O [Compound 37] | 1 to 20 nM
Cc1cc(COc2ncnc3c2nc(NC2CCCC2)n3[C@@H]2O[C@H](C)[C@@H](O)[C@H]2O)ccn1 [Compound 15] | 20 to 500 nM
C[C@H]1O[C@@H](n2c(NC3CCS(=O)(=O)CC3)nc3c(N4CCc5ccccc5C4)ncnc32)[C@H](O)[C@@H]1O [Compound 181] | 20 to 500 nM
C[C@H]1O[C@@H](n2c(-c3cnn(C)c3)nc3c(OCc4ccc([N+](=O)[O-])cc4)ncnc32)[C@H](O)[C@@H]1O [Compound 13] | 20 to 500 nM
C[C@H]1O[C@@H](n2c(NC3CC3)nc3c(N4CCc5ccc(C#N)cc5C4)ncnc32)[C@H](O)[C@@H]1O [Compound 164] | 20 to 500 nM

SMILES | IC50
COc1ccc(COc2ncnc3c2ncn3[C@@H]2O[C@H](C)[C@@H](O)[C@H]2O)cc1C(F)(F)F [Compound 230] | > 500 nM
Cc1cc(C)c(COc2ncnc3c2ncn3[C@@H]2O[C@H](C)[C@@H](O)[C@H]2O)c(C)c1 [Compound 340] | > 500 nM
C[C@H]1O[C@@H](n2cnc3c(SCc4ccc(C(=O)N5CCCC5)cc4)ncnc32)[C@H](O)[C@@H]1O [Compound 390] | > 500 nM
C[C@H]1O[C@@H](n2cnc3c(OCc4ncc(F)cc4F)ncnc32)[C@H](O)[C@@H]1O [Compound 362] | > 500 nM
C[C@H]1O[C@@H](n2c(NCCO)nc3c(OCc4ccc(OC(F)F)cc4)ncnc32)[C@H](O)[C@@H]1O [Compound 42] | 1 to 20 nM
C[C@H]1O[C@@H](n2cnc3c(OCc4cc(F)c(C#N)c(F)c4)nc(Cl)nc32)[C@H](O)[C@@H]1O [Compound 284] | > 500 nM
Cc1nc2ccc(COc3ncnc4c3ncn4[C@@H]3O[C@H](C)[C@@H](O)[C@H]3O)cc2o1 [Compound 338] | > 500 nM
C[C@H]1O[C@@H](n2cnc3c(SCc4ncc(F)cc4F)ncnc32)[C@H](O)[C@@H]1O [Compound 337] | > 500 nM
Cc1cn(C2OC(C)C(O)C2O)c2ncnc(SCc3ccc([N+](=O)[O-])cc3)c12 (single isomer, unassigned) [Compound 194] | 20 to 500 nM
C[C@H]1O[C@@H](n2cnc3c(NCc4cccc(C(=O)N(C)C)c4)ncnc32)[C@H](O)[C@@H]1O [Compound 379] | > 500 nM
C[C@H]1O[C@@H](n2cnc3c(NCc4cccc(C(F)F)c4)ncnc32)[C@H](O)[C@@H]1O [Compound 318] | > 500 nM
C[C@H]1O[C@@H](n2cnc3c(C(=O)N4CC(c5ccc([N+](=O)[O-])cc5)C4)ncnc32)[C@H](O)[C@@H]1O [Compound 266] | > 500 nM
C[C@H]1O[C@@H](n2cnc3c(SCc4cccc(S(N)(=O)=O)c4)ncnc32)[C@H](O)[C@@H]1O [Compound 273] | > 500 nM
CCNc1nc2c(N3CCc4ccc(C#N)cc4C3)ncnc2n1[C@@H]1O[C@H](C)[C@@H](O)[C@H]1O [Compound 198] | 20 to 500 nM
C[C@H]1O[C@@H](n2cnc3c(NCc4ccc(S(N)(=O)=O)cc4)ncnc32)[C@H](O)[C@@H]1O [Compound 334] | > 500 nM
C[C@H]1O[C@@H](n2cnc3c(OCc4cccc(S(C)(=O)=O)c4)ncnc32)[C@H](O)[C@@H]1O [Compound 332] | > 500 nM
C[C@H]1O[C@@H](n2cnc3c(NCc4ccccc4C#N)ncnc32)[C@H](O)[C@@H]1O [Compound 357] | > 500 nM
C[C@H]1O[C@@H](n2c(N[C@H]3C[C@@H](O)C3)nc3c(OCc4ccc([N+](=O)[O-])cc4)ncnc32)[C@H](O)[C@@H]1O [Compound 48] | 1 to 20 nM
C[C@H]1O[C@@H](n2cnc3c(SCc4ccc5ccncc5c4)ncnc32)[C@H](O)[C@@H]1O [Compound 308] | > 500 nM

SMILES | IC50
C[C@H]1O[C@@H](n2c(N[C@@H]3CCC(F)(F)C3)nc3c(OCc4ccc([N+](=O)[O-])cc4)ncnc32)[C@H](O)[C@@H]1O [Compound 83] | < 1 nM
CN(CCO)C(=O)[C@H]1O[C@@H](n2cnc3c(OCc4ccc([N+](=O)[O-])cc4)ncnc32)[C@H](O)[C@@H]1O [Compound 292] | > 500 nM
C[C@H]1O[C@@H](n2cnc3c(OCc4ccc(OCCF)cc4)ncnc32)[C@H](O)[C@@H]1O [Compound 236] | > 500 nM
O=[N+]([O-])c1ccc(COc2ncnc3c2ncn3[C@@H]2O[C@H](COCCO)[C@@H](O)[C@H]2O)cc1 [Compound 191] | 20 to 500 nM
C[C@H]1O[C@@H](n2cnc3c(OCCc4ccc([S+](C)[O-])cc4)ncnc32)[C@H](O)[C@@H]1O (some centres unmarked) [Compound 408] | > 500 nM
CNc1nc2c(OCc3ccccc3)ncnc2n1[C@@H]1O[C@H](C)[C@@H](O)[C@H]1O [Compound 264] | > 500 nM
C[C@H]1O[C@@H](n2cnc3c(OCCc4cnc(C(F)F)nc4)ncnc32)[C@H](O)[C@@H]1O [Compound 404] | > 500 nM
CC(CCO)Nc1nc2c(OCc3ccc(Cl)cc3)ncnc2n1[C@@H]1O[C@H](C)[C@@H](O)[C@H]1O (some centres unmarked) [Compound 97] | 1 to 20 nM
CC(C)(O)[C@H]1O[C@@H](n2cnc3c(SCc4ccc(OC(F)(F)F)cc4)ncnc32)[C@H](O)[C@@H]1O [Compound 262] | > 500 nM
CCOC(=O)/C=C/[C@H]1O[C@@H](n2cnc3c(OCc4ccc([N+](=O)[O-])cc4)ncnc32)[C@H](O)[C@@H]1O [Compound 169] | 20 to 500 nM
Cc1cc(COc2ncnc3c2nc(NC2CCCC2)n3[C@@H]2O[C@H](C)[C@@H](O)[C@H]2O)ccc1[N+](=O)[O-] [Compound 86] | < 1 nM
C[C@H]1O[C@@H](n2cnc3c(COCc4ccc(Cl)cc4)ncnc32)[C@H](O)[C@@H]1O [Compound 290] | > 500 nM
C[C@H]1O[C@@H](n2cnc3c(OCCc4ccc(OC(F)F)cc4)ncnc32)[C@H](O)[C@@H]1O [Compound 276] | > 500 nM
C[C@H]1O[C@@H](n2cnc3c(C(=O)N4CCC(c5ccc([N+](=O)[O-])cc5)C4)ncnc32)[C@H](O)[C@@H]1O (some centres unmarked) [Compound 419] | > 500 nM
C[C@H]1O[C@@H](n2cnc3c(C(=O)NCc4ccc(C#N)cc4)ncnc32)[C@H](O)[C@@H]1O [Compound 361] | > 500 nM
C[C@H]1O[C@@H](n2c(N[C@H]3CC[C@](C)(O)CC3)nc3c(OCc4ccc(F)cc4)ncnc32)[C@H](O)[C@@H]1O [Compound 129] | 1 to 20 nM
C[C@H]1O[C@@H](n2cnc3c(C(=O)N(C)Cc4ccc([N+](=O)[O-])cc4)ncnc32)[C@H](O)[C@@H]1O [Compound 406] | > 500 nM
COc1ccccc1COc1ncnc2c1ncn2[C@@H]1O[C@H](C)[C@@H](O)[C@H]1O [Compound 325] | > 500 nM
C[C@H]1O[C@@H](n2cnc3c(OCCc4ccc(C#N)cn4)ncnc32)[C@H](O)[C@@H]1O [Compound 402] | > 500 nM
